Measured values taken from ChEMBL document CHEMBL1132717, “Development of fluorine-18-labeled 5-HT1A antagonists” (J Med Chem, 1999).
pKi: −log10 of the molar value.

Key:
Rattus norvegicus [1] = organism: Rattus norvegicus; experiment: Biodistribution of the [18F]-radiolabeled compound in rat cortex; assay type: ADME, organism-based; conditions: in vivo
Rattus norvegicus [2] = organism: Rattus norvegicus; experiment: Biodistribution of the [18F]-radiolabeled compound in rat hippocampus; assay type: ADME, organism-based; conditions: in vivo
Rattus norvegicus [3] = organism: Rattus norvegicus; experiment: Biodistribution of the [18F]-radiolabeled compound in rat cerebellum; assay type: ADME, organism-based; conditions: in vivo
Rattus norvegicus [4] = organism: Rattus norvegicus; experiment: Biodistribution of the [18F]-radiolabeled compound in rat hypothalamus; assay type: ADME, organism-based; conditions: in vivo
[5] = molecular target: T1, 5-hydroxytryptamine receptor 1A (Homo sapiens, UniProt P08908); experiment: In vitro inhibition of [3H]- 8-OH-DPAT binding to cloned cell line containing human 5-hydroxytryptamine 1A receptor (Experiment 2)
T1 sequence (P08908 whole entry): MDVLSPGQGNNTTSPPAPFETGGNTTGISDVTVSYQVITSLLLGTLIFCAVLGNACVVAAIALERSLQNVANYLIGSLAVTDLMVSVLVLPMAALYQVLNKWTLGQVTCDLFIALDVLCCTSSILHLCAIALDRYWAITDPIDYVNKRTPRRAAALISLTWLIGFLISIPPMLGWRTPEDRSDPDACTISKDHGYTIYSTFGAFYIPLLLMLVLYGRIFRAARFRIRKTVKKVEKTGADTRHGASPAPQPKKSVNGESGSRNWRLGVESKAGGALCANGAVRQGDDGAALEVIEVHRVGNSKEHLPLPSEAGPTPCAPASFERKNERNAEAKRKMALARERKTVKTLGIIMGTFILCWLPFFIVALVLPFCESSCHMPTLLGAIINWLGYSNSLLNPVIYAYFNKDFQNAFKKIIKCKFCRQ

[6] = molecular target: T1, 5-hydroxytryptamine receptor 1A; experiment: In vitro inhibition of [3H]- 8-OH-DPAT binding to cloned cell line containing human 5-hydroxytryptamine 1A receptor (Experiment 1)
[7] = molecular target: T1, 5-hydroxytryptamine receptor 1A; experiment: In vitro inhibition of [3H]- 8-OH-DPAT binding to cloned cell line containing human 5-hydroxytryptamine 1A receptor by Panlabs assay
[8] = molecular target: T1, 5-hydroxytryptamine receptor 1A; experiment: In vitro inhibition of [3H]- 8-OH-DPAT binding to cloned cell line containing human 5-hydroxytryptamine 1A receptor

| ID/g (Rattus norvegicus [1]) [%] | ID/g (Rattus norvegicus [2]) [%] | ID/g (Rattus norvegicus [3]) [%] | ID/g (Rattus norvegicus [4]) [%] | pKi [5] | pKi [6] | pKi [7] | pKi [8] | SMILES |
| --- | --- | --- | --- | --- | --- | --- | --- | --- |
| 0.085 | 0.195 | 0.034 | 0.066 |  |  |  |  | COc1ccccc1N1CCN(CCN(C(=O)c2ccc(F)cc2)c2ccccn2)CC1 |
| 0.047 | 0.118 | 0.02 |  | 8.94 | 8.40 | 9.10 |  | COc1ccccc1N1CCN(CCN(C(=O)c2ccc(F)c(C)c2)c2ccccn2)CC1 |
| 0.823 | 1.298 | 0.064 | 0.499 |  |  | 9.61 | 9.29 | COc1ccccc1N1CCN(CCN(C(=O)C2CCC(F)CC2)c2ccccn2)CC1 (stereo unspecified) |
